Measured values taken from the NIST ThermoML archive (doi:10.1021/acs.jced.8b00153).
Values joined by “and” are separate entries in the source; they are usually repeats but may differ in a detail not shown here. Identical values can stand only once. Numbers after ± are expanded uncertainties.

Conditions: for surface tension liquid-gas: Drop volume; for viscosity / speed of sound / mass density / vapor or sublimation pressure: Liquid; for viscosity: Capillary tube (Ostwald / Ubbelohde) method; for speed of sound: Frequency=3 MHz, Single path-length method; for mass density: Vibrating tube method; for vapor or sublimation pressure: Ebulliometric method (Recirculating still)

CCc1cccs1 [2-ethylthiophene]
Conditions	surface tension liquid-gas [mN/m]	vapor or sublimation pressure [kPa]
278.15 K	32.36 ± 0.3	–
280.65 K	32.11 ± 0.3	–
283.15 K	31.8 ± 0.3	–
285.65 K	31.55 ± 0.3	–
288.15 K	31.24 ± 0.29	–
290.65 K	30.98 ± 0.29	–
292.41 K	–	0.8 ± 0.1
293.15 K	30.66 ± 0.29	–
293.45 K	–	0.84 ± 0.1
295.65 K	30.44 ± 0.29	–
296.81 K	–	1.03 ± 0.1
298.04 K	–	1.145 ± 0.1
298.15 K	30.1 ± 0.29	–
299.11 K	–	1.23 ± 0.1
300.65 K	29.86 ± 0.29	–
302.95 K	–	1.52 ± 0.1
303.15 K	29.54 ± 0.29	–
305.65 K	29.3 ± 0.29	–
308.07 K	–	2.005 ± 0.1
308.15 K	28.96 ± 0.29	–
310.65 K	28.73 ± 0.28	–
312.28 K	–	2.55 ± 0.1
313.15 K	28.41 ± 0.28	–

Conditions	mass density	speed of sound [m/s]	viscosity [mPa·s]
278.15 K, 100 kPa	1008.35 ± 0.54 kg/m3	1373.2 ± 1.1	0.9347 ± 0.0087
280.65 K, 100 kPa	1005.86 ± 0.54 kg/m3	1363.4 ± 1.1	0.905 ± 0.0085
283.15 K, 100 kPa	1003.44 ± 0.54 kg/m3 and 1003.37 ± 0.54 kg/m3	1354.2 ± 1.1	0.8766 ± 0.0083
283.15 K, 2000 kPa	1004.84 ± 0.54 kg/m3	–	–
283.15 K, 5000 kPa	1007 ± 0.54 kg/m3	–	–
283.15 K, 7000 kPa	1008.42 ± 0.55 kg/m3	–	–
283.15 K, 10000 kPa	1010.51 ± 0.55 kg/m3	–	–
283.15 K, 15000 kPa	1013.9 ± 0.55 kg/m3	–	–
283.15 K, 20000 kPa	1017.18 ± 0.55 kg/m3	–	–
283.15 K, 25000 kPa	1020.37 ± 0.56 kg/m3	–	–
283.15 K, 30000 kPa	1023.45 ± 0.56 kg/m3	–	–
283.15 K, 35000 kPa	1026.45 ± 0.56 kg/m3	–	–
283.15 K, 40000 kPa	1029.36 ± 0.57 kg/m3	–	–
283.15 K, 45000 kPa	1032.2 ± 0.57 kg/m3	–	–
283.15 K, 50000 kPa	1034.96 ± 0.58 kg/m3	–	–
283.15 K, 55000 kPa	1037.65 ± 0.59 kg/m3	–	–
283.15 K, 60000 kPa	1040.28 ± 0.6 kg/m3	–	–
283.15 K, 65000 kPa	1042.84 ± 0.6 kg/m3	–	–
285.65 K, 100 kPa	1000.87 ± 0.54 kg/m3	1344.7 ± 1.1	0.8498 ± 0.0082
288.15 K, 100 kPa	998.47 ± 0.54 kg/m3 and 998.38 ± 0.54 kg/m3	1334.1 ± 1.1	0.8244 ± 0.008
288.15 K, 2000 kPa	999.91 ± 0.54 kg/m3	–	–
288.15 K, 5000 kPa	1002.13 ± 0.54 kg/m3	–	–
288.15 K, 7000 kPa	1003.59 ± 0.54 kg/m3	–	–
288.15 K, 10000 kPa	1005.73 ± 0.54 kg/m3	–	–
288.15 K, 15000 kPa	1009.2 ± 0.55 kg/m3	–	–
288.15 K, 20000 kPa	1012.57 ± 0.55 kg/m3	–	–
288.15 K, 25000 kPa	1015.82 ± 0.55 kg/m3	–	–
288.15 K, 30000 kPa	1018.97 ± 0.56 kg/m3	–	–
288.15 K, 35000 kPa	1022.04 ± 0.56 kg/m3	–	–
288.15 K, 40000 kPa	1025.03 ± 0.56 kg/m3	–	–
288.15 K, 45000 kPa	1027.9 ± 0.57 kg/m3	–	–
288.15 K, 50000 kPa	1030.72 ± 0.58 kg/m3	–	–
288.15 K, 55000 kPa	1033.47 ± 0.58 kg/m3	–	–
288.15 K, 60000 kPa	1036.14 ± 0.59 kg/m3	–	–
288.15 K, 65000 kPa	1038.73 ± 0.6 kg/m3	–	–
290.65 K, 100 kPa	995.88 ± 0.54 kg/m3	1325 ± 1.1	0.8003 ± 0.0079
293.15 K, 100 kPa	993.45 ± 0.54 kg/m3 and 993.38 ± 0.54 kg/m3	1315.3 ± 1.1	0.7772 ± 0.0078
293.15 K, 2000 kPa	994.92 ± 0.54 kg/m3	–	–
293.15 K, 5000 kPa	997.2 ± 0.54 kg/m3	–	–
293.15 K, 7000 kPa	998.7 ± 0.54 kg/m3	–	–
293.15 K, 10000 kPa	1000.9 ± 0.54 kg/m3	–	–
293.15 K, 15000 kPa	1004.46 ± 0.54 kg/m3	–	–
293.15 K, 20000 kPa	1007.92 ± 0.55 kg/m3	–	–
293.15 K, 25000 kPa	1011.25 ± 0.55 kg/m3	–	–
293.15 K, 30000 kPa	1014.49 ± 0.55 kg/m3	–	–
293.15 K, 35000 kPa	1017.62 ± 0.56 kg/m3	–	–
293.15 K, 40000 kPa	1020.67 ± 0.56 kg/m3	–	–
293.15 K, 45000 kPa	1023.61 ± 0.57 kg/m3	–	–
293.15 K, 50000 kPa	1026.49 ± 0.57 kg/m3	–	–
293.15 K, 55000 kPa	1029.29 ± 0.58 kg/m3	–	–
293.15 K, 60000 kPa	1032.01 ± 0.58 kg/m3	–	–
293.15 K, 65000 kPa	1034.65 ± 0.59 kg/m3	–	–
295.65 K, 100 kPa	990.88 ± 0.54 kg/m3	1305.8 ± 1.1	0.7554 ± 0.0077
298.15 K, 100 kPa	988.39 ± 0.54 kg/m3 and 988.37 ± 0.54 kg/m3	1295.8 ± 1.1	0.7345 ± 0.0076
298.15 K, 2000 kPa	989.91 ± 0.54 kg/m3	–	–
298.15 K, 5000 kPa	992.26 ± 0.54 kg/m3	–	–
298.15 K, 7000 kPa	993.8 ± 0.54 kg/m3	–	–
298.15 K, 10000 kPa	996.05 ± 0.54 kg/m3	–	–
298.15 K, 15000 kPa	999.7 ± 0.54 kg/m3	–	–
298.15 K, 20000 kPa	1003.24 ± 0.54 kg/m3	–	–
298.15 K, 25000 kPa	1006.67 ± 0.55 kg/m3	–	–
298.15 K, 30000 kPa	1009.97 ± 0.55 kg/m3	–	–
298.15 K, 35000 kPa	1013.18 ± 0.55 kg/m3	–	–
298.15 K, 40000 kPa	1016.3 ± 0.56 kg/m3	–	–
298.15 K, 45000 kPa	1019.31 ± 0.56 kg/m3	–	–
298.15 K, 50000 kPa	1022.24 ± 0.57 kg/m3	–	–
298.15 K, 55000 kPa	1025.1 ± 0.57 kg/m3	–	–
298.15 K, 60000 kPa	1027.87 ± 0.58 kg/m3	–	–
298.15 K, 65000 kPa	1030.59 ± 0.58 kg/m3	–	–
300.65 K, 100 kPa	985.87 ± 0.54 kg/m3	1285.4 ± 1.1	0.7148 ± 0.0075
303.15 K, 100 kPa	983.42 ± 0.54 kg/m3 and 983.36 ± 0.54 kg/m3	1276.5 ± 1.1	0.696 ± 0.0074
303.15 K, 2000 kPa	984.97 ± 0.54 kg/m3	–	–
303.15 K, 5000 kPa	987.39 ± 0.54 kg/m3	–	–
303.15 K, 7000 kPa	988.98 ± 0.54 kg/m3	–	–
303.15 K, 10000 kPa	991.3 ± 0.54 kg/m3	–	–
303.15 K, 15000 kPa	995.04 ± 0.54 kg/m3	–	–
303.15 K, 20000 kPa	998.67 ± 0.54 kg/m3	–	–
303.15 K, 25000 kPa	1002.17 ± 0.54 kg/m3	–	–
303.15 K, 30000 kPa	1005.54 ± 0.55 kg/m3	–	–
303.15 K, 35000 kPa	1008.81 ± 0.55 kg/m3	–	–
303.15 K, 40000 kPa	1012 ± 0.55 kg/m3	–	–
303.15 K, 45000 kPa	1015.07 ± 0.56 kg/m3	–	–
303.15 K, 50000 kPa	1018.07 ± 0.56 kg/m3	–	–
303.15 K, 55000 kPa	1020.99 ± 0.57 kg/m3	–	–
303.15 K, 60000 kPa	1023.81 ± 0.57 kg/m3	–	–
303.15 K, 65000 kPa	1026.56 ± 0.58 kg/m3	–	–
305.65 K, 100 kPa	980.85 ± 0.54 kg/m3	1266.7 ± 1.1	0.678 ± 0.0073
308.15 K, 100 kPa	978.38 ± 0.54 kg/m3 and 978.33 ± 0.54 kg/m3	1256.8 ± 1.1	0.6606 ± 0.0072
308.15 K, 2000 kPa	979.99 ± 0.54 kg/m3	–	–
308.15 K, 5000 kPa	982.48 ± 0.54 kg/m3	–	–
308.15 K, 7000 kPa	984.11 ± 0.54 kg/m3	–	–
308.15 K, 10000 kPa	986.49 ± 0.54 kg/m3	–	–
308.15 K, 15000 kPa	990.33 ± 0.54 kg/m3	–	–
308.15 K, 20000 kPa	994.05 ± 0.54 kg/m3	–	–
308.15 K, 25000 kPa	997.63 ± 0.54 kg/m3	–	–
308.15 K, 30000 kPa	1001.09 ± 0.54 kg/m3	–	–
308.15 K, 35000 kPa	1004.45 ± 0.55 kg/m3	–	–
308.15 K, 40000 kPa	1007.68 ± 0.55 kg/m3	–	–
308.15 K, 45000 kPa	1010.84 ± 0.55 kg/m3	–	–
308.15 K, 50000 kPa	1013.88 ± 0.56 kg/m3	–	–
308.15 K, 55000 kPa	1016.86 ± 0.56 kg/m3	–	–
308.15 K, 60000 kPa	1019.74 ± 0.57 kg/m3	–	–
308.15 K, 65000 kPa	1022.56 ± 0.57 kg/m3	–	–
310.65 K, 100 kPa	975.82 ± 0.54 kg/m3	1246.5 ± 1.1	0.6442 ± 0.0071
313.15 K, 100 kPa	–	–	0.6282 ± 0.007
